Here are results for 11 compounds from patent publication US6190849A, “Photographic element containing ballasted tetrazole derivative and inhibitor releasing coupler” (priority 1999, dated 2001).

Assay [1] is described as follows: Interimage in bilayer format: IDIR-2 in blue layer, IEM in green layer. Particulars: for Cg /Cb+g (interimage): IEM or CIEM in green layer at 7.2×10^-3 mmol/m^2, higher ratio = more interimage, no-IEM check; for Relative Speed (green layer): IEM or CIEM in green layer, speed point +0.15 density above Dmin, normalized to check. The procedure:
(§1) Bilayer photographic elements were prepared by coating the following layers on a cellulose triacetate film support (coverages are in g/m^2). Unless otherwise noted, all comparative and inventive compounds were dispersed in twice their own weight of N,N-dibutyllauramide: […] Layer 3 (Interlayer): gelatin at 0.64, ILS-1 at 0.11 and FD-1 at 0.11. […] Layer 5 (Overcoat): gelatin at 2.79 and 0.02 bis-vinylsulfonemethylether. […] Contrast of the elements was determined using the maximum slope between any two density points. In this test, the ratio of the contrast of the green only exposure to the contrast of the green of a blue and green exposure (Cg /Cb+g) is a measure of the interimage. A higher ratio means more inhibition originating from the blue and affecting the green record. Relative speed of the green layer was determined by measuring the speed point +0.15 density units above Dmin and normalizing to the check position.

A short description of assay [2]: Interimage in bilayer format: IDIR-6 in blue layer, IEM in green layer. The conditions noted are these: for Cg /Cb+g (interimage): IEM or CIEM in green layer at 7.2×10^-3 mmol/m^2; for Relative Speed (green layer): IEM or CIEM in green layer, normalized to check. The procedure:
as §1

The nature of assay [3]: Interimage in bilayer format: IDIR-1 in green layer, IEM in blue layer. How it is done:
Samples of each element were given a stepped exposure of either green light only or blue and green light combined and processed in the KODAK FLEXICOLOR™ (C4 1) process as described in British Journal of Photography Annual, 1988, pp196-198. Contrast of the elements was determined using the maximum slope between any two density points. […] A higher ratio means more inhibition originating from the blue and affecting the green record. Relative speed of the green layer was determined by measuring the speed point +0.15 density units above Dmin and normalizing to the check position.
Additional bilayer elements were prepared in a manner similar to above by coating the following layers:
Layer 1 (Antihalation Layer): black colloidial elemental silver at 0.34 and gelatin at 2.41.
Layer 2 (Causer Layer): gelatin at 2.79, IDIR-1 at 0.054, coupler M-1 (dispersed as described previously) added at 0.045, and 0.81 green sensitized AgIBr tabular emulsion.
Layer 3 (Interlayer): gelatin at 0.64, ILS-1 at 0.11 and FD-1 at 0.11.
Layer 4 (Receiver Layer): gelatin at 2.79, coupler Y-2 at 1.08, IDIR-6 at 0.076, 0.79 blue sensitized AgIBr tabular emulsion and (when present) IEM-4 (dispersed as above) at 0.0023.
Layer 5 (Overcoat): gelatin at 2.79 and 0.02 bis-vinylsulfonemethylether.

Assay [4] is described as follows: Interimage in multilayer format (density change of receiver record). Particulars: for R→G density difference (interimage) / B→G density difference (interimage): CDIR-1 in red. An excerpt: Multilayer Film Example ML-1:
Layer 1 (Antihalation layer): black collodial silver sol at 0.135; ILS-1 at 0.162,
Layer 2 (Slow cyan layer): a blend of two red sensitized (both with a mixture of RSD-1 and RSD-2) tabular silver iodobromide emulsions: (i) 0.66×0.12, 4.1 mole % I at 0.302 (ii) 0.55×0.08, 1.5 mole % I at 0.464; cyan dye-forming coupler C-1 at 0.535; DIR coupler CDIR-1 at 0.027; bleach accelerator releasing coupler B-1 at 0.057; masking coupler MC-1 at 0.032; and gelatin at 1.68.
Layer 3 (Mid cyan layer): a blend of two red sensitized (same as above) tabular silver iodobromide emulsions: (i) […], 4.1 mole % I at 0.194 (ii) 1.07×0.11, 4.1 mole % I at 0.238; cyan coupler C-1 at 0.171; CDIR-1 at 0.019; MC-1 at 0.032; B-1 at 0.008; and gelatin at 1.08.
Layer 4 (Fast cyan layer): a red sensitized (same as above) tabular silver iodobromide emulsion (1.33×0.12, 4.1 mole % I) at 0.594; C-1 at 0.184; CDIR-1 at 0.027; MC-1 at 0.022; and gelatin at 0.918.
Layer 5 (Interlayer): ILS-1 at 0.086 and gelatin at 0.540.
Layer 6 (Slow magenta layer): a blend of two green sensitized (both with a mixture of GSD-1 and GSD-2) silver iodobromide emulsions: (i) 0.81×0.12, 2.6 mole % iodide at 0.346 and (ii) 0.55×0.08, 1.5 mole % iodide at 0.130; magenta dye forming coupler M-1 at 0.270; MC-2 at 0.086; IDIR-5 at 0.011; and gelatin at 1.08.
Layer 7 (Mid magenta layer): a blend of two green sensitized (same as above) tabular silver iodobromide emulsions (i) 1.22×0.11, 4.1 mole % I at 0.248 and (ii) 1.07×0.11, 4.1 mole % I at 0.248; M-1 at 0.124; MC-2 at 0.119; IDIR-5 at 0.043; OxDS-2 at 0.016; and gelatin at 1.22.
Layer 8 (Fast magenta layer): a green sensitized tabular silver iodobromide (1.33×0.12, 4.1 mole % I) emulsion at 0.486; M-1 at 0.076; MC-2 at 0.054; B-1 at 0.003; IDIR-5 at 0.015; OxDS-2 at 0.009; and gelatin at 1.02.
Layer 9 (Yellow filter layer): yellow filter dye FD-1 at 0.054; ILS-1 at 0.086; and gelatin at 0.648.
Layer 10 (Slow yellow layer): a blend of three blue sensitized (all with a mixture of BSD-1 and BSD-2) tabular silver iodobromide emulsions (i) 0.55×0.08, 1.5 mole % I at 0.270 (ii) […], 1.5 mole % I at 0.248 and (iii) 1.25×0.14, 4.1 mole % I at 0.400; yellow dye forming coupler Y-2 at 1.08; IDIR-6 at 0.076; CDIR-1 at 0.032; B-1 at 0.022; and gelatin at 1.879.
Layer 11 (Fast yellow layer): a blend of two blue sensitized (both with a mixture of BSD-1 and BSD-2) tabular silver iodobromide emulsions (i) 1.25×0.14, 4.1 mole % I at 0.108 (ii) 2.67×0.13, 4.1 mole % I at 0.378; Y-2 at 0.238; IDIR-6 at 0.076; B-1 at 0.005; and gelatin at 0.810.
Layer 12 (Protective overcoat and UV filter layer): silver bromide Lippman emulsion at 0.216; UV-1 at a total of 0.108; gelatin at 1.242 and bis(vinylsulfonyl)methane hardener at 1.75% of total gelatin weight.
Surfactants, coating aids, emulsion addenda, sequestrants, thickeners, lubricants, matte and tinting dyes were added to the appropriate layers as is common in the art. […]
These multilayer coatings were given a stepped exposure in one color record but only flashed (non-imagewise exposure) in the other two records and processed as described for the bilayer experiments. To monitor interimage, a step nearest to density of 1.5 in the stepped color record (the causer) was chosen, and the difference in density of the other color records (the receivers) at that step and at the no exposure step of the causer was determined. […]

The nature of assay [5]: Contrast (gamma) reduction by DI(A)R in single layer film element, C-41 process. The conditions noted are these: DIR at 0.055 mmol/m^2, relative to non-inhibitor containing check; KODAK FLEXICOLOR (C-41). From the text:
The mild inhibitor fragments that are used in this invention are defined as those that cause less than a 45% gamma reduction, or more preferably less than a 40% gamma reduction, relative to a non-inhibitor containing check when coated as the following single layer film element on a cellulose triacetate film support (coverages are in g/m^2): […]
Overcoat Gelatin at 2.79 and 0.02 bis-vinylsulfonemethylether
Imaging Layer Gelatin at 2.79
Magenta Image Coupler M-1 (dispersed at 80% by
weight in tricresyl phosphate and 20% by weight
N,N-dibutyl-2-butoxy-5-t-octylaniline) at 0.692
DIR being tested at 0.055 mmol/m^2 (dispersed in twice
its weight in N,N-dibutyllauramide)
Green sensitized AgBrI at 1.08
Samples of each element were given a stepped exposure and processed in the KODAK FLEXICOLOR (C-41) process as described in British Journal of Photography Annual, 1988, pp 196-198. Contrast of the elements was determined using the maximum slope between any two density points.

Where [6] appears, read: ML-4: IEM-4 in green, IDIR-2 in blue.

For `CCCCCCCOC(=O)C(CCSC)n1nn[nH]c1=S` (racemic) [IEM-4], the “Cg /Cb+g (interimage)” value in assay [1] is recorded as 1.62; in assay [2], 1.35. The “Relative Speed (green layer)” value turned out to be 0.96 in assay [1] and 0.94 in assay [2]. The “Cb /Cb+g (interimage)” value in assay [3] (IEM-4 in blue layer at 0.0023 g/m^2) is 1.57. Also, the “Relative Speed” value in assay [3] (IEM-4 in blue layer at 0.0023 g/m^2, normalized to check) is 0.98. Besides, the “R→G density difference (interimage)” value is given as -0.206 in assay [4] (ML-3: IEM-4 in green, IDIR-6 in blue) and -0.238 in assay [4] (setting [6]). Also, the “B→G density difference (interimage)” value is reported as -0.129 in assay [4] (ML-3: IEM-4 in green, IDIR-6 in blue, more negative = increased interimage) and -0.212 in assay [4] (setting [6]).
With `CCCOC(=O)Cn1nnnc1SC1C(=O)N(c2ccc(NC(=O)C(CC)Oc3ccc(C(C)(C)CC)cc3C(C)(C)CC)cc2)N=C1N1CCCC1` (stereo not drawn) [IDIR-4], the “% Contrast Reduction” value in assay [5] is recorded as -22.6%.
On to `CCCCCCOC(=O)c1nn(C2C(=O)N(c3ccc(NC(=O)C(CC)Oc4ccc(C(C)(C)CC)cc4C(C)(C)CC)cc3)N=C2C)nc1C` (stereo not drawn) [CDIR-8], for which, in assay [5], the “% Contrast Reduction” value is -49.2%.
Take `CCCCCCCCCCC(Oc1ccc(S(=O)(=O)c2ccc(O)cc2)cc1)C(=O)Nc1ccc(N2N=C(C)C(n3nc(C)c(C(=O)OCCCCCC)n3)C2=O)cc1` (stereo not drawn) [CDIR-9]: in assay [5], the “% Contrast Reduction” value is reported as -50.1%.
Still for that read-out and setting: the result for `CCC(Oc1ccc(C(C)(C)CC)cc1C(C)(C)CC)C(=O)Nc1ccc(N2N=C(N3CCCC3)C(Sc3nnnn3-c3ccccc3)C2=O)cc1` (stereo not drawn) [CDIR-2] reads -67.1%.
On to `CC(=O)Nc1cccc(-n2nn[nH]c2=S)c1` [CIEM-1], for which, in assay [1], the “Cg /Cb+g (interimage)” value was determined as 1.19 and the “Relative Speed (green layer)” value was 1.01. Moreover, in assay [2], the “Cg /Cb+g (interimage)” value was determined as 1.16 and the “Relative Speed (green layer)” value stood at 1.01.
Consider `CCCCCCCCCCCCCCOc1ccccc1NC(=O)c1cc(Sc2nnnn2CC)c2ccccc2c1O` [IDIR-8], for which the “% Contrast Reduction” value in assay [5] is recorded as -2.4%.
As to `CCCCCCCCCCCCCCOc1ccccc1NC(=O)c1cc(Oc2ccc(CSc3nnnn3Cc3ccc(OC)cc3)cc2[N+](=O)[O-])c2ccccc2c1O` [CDIR-1], in assay [5], the “% Contrast Reduction” value is -55.4%. Also, the “interimage, in words” value in assay [4] (Table IV, IEM in green layer) is “Interimage is not increased”.
For `CCCCCCCCCCCCCCOc1ccccc1NC(=O)c1cc(Oc2ccc([N+](=O)[O-])cc2CN(C(=O)Sc2nnnn2-c2ccccc2)C(C)C)c2ccccc2c1O` [CDIR-3], the “% Contrast Reduction” value in assay [5] was -75.7%.
Same read-out and setting: the result for `CCCCCCCCCCCCCCCCS(=O)(=O)Nc1ccc(Cl)c(NC(=O)C(Oc2ccc([N+](=O)[O-])cc2CN(CC)C(=O)Sc2nnnn2CC(=O)OCCC)C(=O)C(C)(C)C)c1` (stereo not drawn) [IDIR-2] reads -25.3%; that for `CCCCCCCCCCCCCCOc1ccccc1NC(=O)c1cc(Oc2ccc(CSc3nnnn3-c3ccccc3)cc2[N+](=O)[O-])c2ccccc2c1O` [CDIR-4], -77.1%.
